Source: US10953004B2, “Combination therapy for proliferative diseases” (Avexxin AS, priority 2016, dated 2021)

System: MDA-MB-468 cell line
Experiment: Resazurin viability assay
Type: cell-based, human
Conditions: MDA-MB-468 cells
Experimental: Cell Culture. The MDA-MB-468 cell line was from ATCC. This cell line was established from a pleural effusion of patient with metastatic breast adenocarcinoma. The cells were maintained in RPMI medium supplemented with 10% (v/v) FBS, 0.3 mg/mL L-glutamine, and 0.1 mg/mL gentamicin at 37° C. in 5% CO2. Sub-culture using trypsin-EDTA was performed every 3-4 days with a split ratio of 1:3-1:6 to ensure actively proliferating cells. Resazurin Viability Assay. Cells were seeded in fully supplemented medium at a density of 7 000 cells per well in 96 well plates. After 24 hrs of cultivation, when the cells were 60% confluent, the medium was replaced with serum free medium to ensure synchronization of the cells and to increase cell sensitivity to treatment. Following 16 hrs of serum starvation, the medium was replaced with fresh serum free medium with or without Compound […], Norway), and NVP-BEZ235 (Cayman Chemicals, US) or solvent (DMSO, Sigma Aldrich, US). The cells were observed under the microscope to evaluate possible morphology changes and signs of stress before the addition of resazurin according to the manufacturers instructions (RnD Systems, UK). Resazurin was metabolized for 2 hrs (37° C., 5% CO2) before fluorescence was read at 544 nm excitation and 590 nm emission wavelengths (BioTek Synergy HT).

## Cn1c(=O)n(-c2ccc(C(C)(C)C#N)cc2)c2c3cc(-c4cnc5ccccc5c4)ccc3ncc21 [BEZ235]
Homo sapiens, serum free medium, 5 μM of each inhibitor, 24 hrs of treatment, read-out: reduction of viability
  cytotoxicity at 5 µM: ~30%
25-100 μM, results not shown
  toxicity to the cells, each inhibitor alone (initial experiments): toxic
Doses 1-5 μM, results not shown
  signs of cellular stress or cytotoxicity, each inhibitor alone (initial experiments): little or no signs of cellular stress of cytotoxicity
